Assay results published in patent EP1366764A1, “Method of screening for calcium receptor-active molecules” (The Brigham & Women's Hospital, Inc., priority 1993, dated 1994).

Columns and labels:
human parathyroid cells [1] = assay: Measurement of [Ca2+]i (fura-2) in human parathyroid cells; assay type: cell-based; conditions: 20 µM
rMTC 6-23 cells = assay: Measurement of cytosolic Ca2+ in C-cells (fura-2); assay type: cell-based, rat
rat osteoclasts = assay: Measurement of [Ca2+]i in single rat osteoclasts (indo-1); assay type: cell-based
Ca^2+ receptor [2] = target: T1, Ca^2+ receptor (Homo sapiens, UniProt P41180); assay: Cl- current in Xenopus oocytes injected with human parathyroid cell mRNA; assay type: cell-based
T1 construct: Oocytes were injected with poly(A)^+-enriched mRNA from human parathyroid tissue; expressed in transfected cells; host or cells: Xenopus laevis oocytes injected with poly(A)+ mRNA from human hyperplastic parathyroid glands (secondary HPT)
T1 sequence (P41180 20-1078): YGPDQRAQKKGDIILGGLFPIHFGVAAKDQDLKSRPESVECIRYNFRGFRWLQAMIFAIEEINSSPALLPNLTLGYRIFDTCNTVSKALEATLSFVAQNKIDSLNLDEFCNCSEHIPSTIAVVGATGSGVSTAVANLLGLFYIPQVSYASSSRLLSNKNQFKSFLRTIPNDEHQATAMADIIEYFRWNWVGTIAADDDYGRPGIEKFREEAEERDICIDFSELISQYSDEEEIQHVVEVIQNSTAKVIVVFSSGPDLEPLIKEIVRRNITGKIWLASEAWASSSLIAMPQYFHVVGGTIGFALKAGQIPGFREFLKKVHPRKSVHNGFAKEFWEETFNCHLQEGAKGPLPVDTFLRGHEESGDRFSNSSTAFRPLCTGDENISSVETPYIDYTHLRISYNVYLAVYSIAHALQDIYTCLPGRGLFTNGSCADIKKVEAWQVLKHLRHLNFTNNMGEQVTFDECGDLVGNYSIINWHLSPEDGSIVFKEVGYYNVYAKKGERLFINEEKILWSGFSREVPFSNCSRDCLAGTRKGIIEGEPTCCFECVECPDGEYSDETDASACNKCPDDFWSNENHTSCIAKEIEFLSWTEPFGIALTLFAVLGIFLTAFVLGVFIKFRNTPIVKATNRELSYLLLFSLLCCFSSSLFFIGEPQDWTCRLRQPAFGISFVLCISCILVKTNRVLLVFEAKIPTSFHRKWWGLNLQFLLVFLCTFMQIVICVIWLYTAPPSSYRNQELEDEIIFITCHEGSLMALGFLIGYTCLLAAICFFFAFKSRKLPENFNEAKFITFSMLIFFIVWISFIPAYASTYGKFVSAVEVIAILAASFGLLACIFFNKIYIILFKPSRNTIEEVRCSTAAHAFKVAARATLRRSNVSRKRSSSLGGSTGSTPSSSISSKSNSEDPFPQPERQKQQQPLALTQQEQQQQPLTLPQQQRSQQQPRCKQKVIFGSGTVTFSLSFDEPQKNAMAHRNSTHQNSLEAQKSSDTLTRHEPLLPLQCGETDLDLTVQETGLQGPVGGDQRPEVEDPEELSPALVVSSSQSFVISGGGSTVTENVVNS

Ca^2+ receptor [3] = target: T2, Ca^2+ receptor (Bos taurus, UniProt P35384); assay: 45Ca2+ release from Xenopus oocytes injected with bovine parathyroid mRNA; assay type: cell-based; conditions: 10 mM for 20 min; compared to mock challenge with buffer
T2 construct: oocytes were injected with bovine parathyroid mRNA or water; expressed in transfected cells; host or cells: Xenopus laevis oocytes injected with poly(A)+ mRNA from bovine (calf) parathyroid glands
T2 sequence (P35384 20-1085): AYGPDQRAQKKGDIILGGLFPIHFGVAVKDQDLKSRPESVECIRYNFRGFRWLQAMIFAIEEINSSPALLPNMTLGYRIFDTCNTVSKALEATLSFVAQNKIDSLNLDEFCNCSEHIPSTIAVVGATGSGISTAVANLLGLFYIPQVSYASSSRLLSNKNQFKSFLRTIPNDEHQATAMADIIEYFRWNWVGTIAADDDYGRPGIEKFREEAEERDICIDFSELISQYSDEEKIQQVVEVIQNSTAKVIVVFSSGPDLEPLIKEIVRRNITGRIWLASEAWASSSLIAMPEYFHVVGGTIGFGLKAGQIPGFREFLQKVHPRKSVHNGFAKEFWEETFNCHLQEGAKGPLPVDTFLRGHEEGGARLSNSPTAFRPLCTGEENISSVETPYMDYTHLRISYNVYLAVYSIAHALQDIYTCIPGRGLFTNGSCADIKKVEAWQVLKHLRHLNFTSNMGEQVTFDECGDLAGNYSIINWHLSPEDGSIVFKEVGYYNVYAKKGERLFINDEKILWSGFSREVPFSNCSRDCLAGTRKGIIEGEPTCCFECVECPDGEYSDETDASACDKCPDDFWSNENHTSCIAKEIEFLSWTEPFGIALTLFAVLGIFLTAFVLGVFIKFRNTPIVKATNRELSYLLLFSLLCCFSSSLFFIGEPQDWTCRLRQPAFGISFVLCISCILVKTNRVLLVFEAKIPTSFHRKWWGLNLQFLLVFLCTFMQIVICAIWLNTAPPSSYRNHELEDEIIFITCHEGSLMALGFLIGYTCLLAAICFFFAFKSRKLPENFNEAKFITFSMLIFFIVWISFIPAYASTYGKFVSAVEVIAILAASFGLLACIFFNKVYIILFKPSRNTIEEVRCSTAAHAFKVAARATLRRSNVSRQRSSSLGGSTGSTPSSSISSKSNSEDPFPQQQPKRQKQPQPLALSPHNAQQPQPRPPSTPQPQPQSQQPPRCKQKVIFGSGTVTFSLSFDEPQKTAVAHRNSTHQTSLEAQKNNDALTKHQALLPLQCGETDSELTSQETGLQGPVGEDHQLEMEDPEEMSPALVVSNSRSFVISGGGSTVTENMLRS
Excerpt: Prior to being stimulated, oocytes were loaded with ^45Ca^2+.

[4] = target: T3, bovine parathyroid Ca^2+-receptor (Bos taurus, UniProt P35384); assay: Cl- current in Xenopus oocytes expressing the cloned receptor (BoPCaR 1); assay type: cell-based
T3 construct: expressed in transfected cells; host or cells: Xenopus laevis oocytes injected with cRNA from the BoPCaR 1 cDNA (plasmid pSPORT1, ATCC 75416)
T3 sequence (P35384 20-1085): T2 sequence (P35384 20-1085)
Excerpt: An expression cloning strategy using Xenopus laevis oocytes was used to identify the cDNA encoding the bovine parathyroid calcium receptor. These techniques are described only briefly here, and a more complete description preceded this one in the sections describing techniques which may be used to clone additional forms of the Ca^2+-receptor from other cell types. Poly(A^+)-enriched RNA was initially prepared from bovine parathyroid glands using extraction with guanidinium thiocyanate, centrifugation through CsCl and oligo(dT) cellulose chromatography. […] No such currents were elicited in control eggs injected with water. […] The mRNA was then subjected to size fractionation, utilizing preparative, continuous flow agarose gel electrophoresis (Hediger, M.A., Anal. Biochem. 159:280-286 (1986)) to obtain fractions of poly(A^+)-RNA further enriched in transcripts coding for the Ca^2+-receptor. […] A plasmid containing the BoPCaR 1 […] (See plasmid, Figure 45; restriction map, Figure 46; and partial nucleotide sequence, Figure 47) has been deposited in the ATCC under deposit number ATCC 75416.
Several pharmacological and biochemical criteria were used to identify this clone as encoding a bona fide bovine parathyroid Ca^2+-receptor. […] These responses increased markedly over a period of one (1) to four (4) days after injection of the eggs with cRNA prepared from the BoPCaR 1 cDNA. […]

human parathyroid cells [5] = assay: Measurement of PTH secretion from human parathyroid cells (radioimmunoassay); assay type: cell-based; conditions: human (adenoma) parathyroid cells; at concentrations that caused the mobilization of intracellular Ca2+
Procedure: Cells were suspended in PCB containing 0.5 mM CaCl2 and 0.1% BSA.
For human cells, a commercially available radioimmunoassay kit (INS-PTH; Nichols Institute, Los Angeles, CA) which recognizes intact and N-terminal human PTH was used because GW-1 antibody recognizes human PTH poorly.

[6] = Net positive charge of the molecule; assay type: physicochemical; conditions: at physiological pH (pH 7.3)
[7] = polymers of 1000 amino acids; cited from earlier work

Compound	increase in [Ca^2+]i (human parathyroid cells [1])	EC50 (C-CELL) (rMTC 6-23 cells; rMTC 6-23 cells, fura-2, "inactive" = no increase in cytosolic Ca2+ at 1 mM or 1-5 mM (footnote))	effect on basal [Ca^2+]i (rMTC 6-23 cells; spermine 10 mM, neomycin B 5 mM)	effect on the response to subsequent extracellular Ca^2+ (rat osteoclasts; neomycin 10 mM (25 mM extracellular Ca2+), spermine 20 mM, verapamil 100 µM)	increases in [Ca^2+]i in rat osteoclasts (rat osteoclasts; neomycin 10 mM, spermine 10 or 20 mM)	increase in [Ca^2+]i in osteoclasts (rat osteoclasts; neomycin B 1 mM, spermine 1 or 5 mM)	EC50 (OSTEOCLAST) (rat osteoclasts; rat osteoclasts, indo-1, "inactive" = no increase in cytosolic Ca2+ at 1 mM or 1-5 mM (footnote))	change in current in water-injected oocytes (Ca^2+ receptor [2]; 10 mM, five water-injected oocytes (specificity control))	concentrations at which oscillatory increases in the Cl^- current were observed (Ca^2+ receptor [2]; 3 days after injection of human (hyperplastic) parathyroid poly(A)+ mRNA)	concentration causing the mobilization of intracellular Ca^2+ in oocytes (Ca^2+ receptor [2]; oocytes injected with mRNA from human parathyroid cells) [µM]	increase in ^45Ca^2+ release (Ca^2+ receptor [3]) [%]	concentrations producing changes in Cl^- current [4] [µM]	inhibition of PTH secretion (human parathyroid cells [5])	Net (+) Charge [6]	Kd [7] [nM]
NC[C@@H]1O[C@H](O[C@H]2[C@@H](O)[C@H](O[C@@H]3[C@@H](O)[C@H](N)C[C@H](N)[C@H]3O[C@H]3O[C@H](CN)[C@@H](O)[C@H](O)[C@H]3N)O[C@@H]2CO)[C@H](N)[C@@H](O)[C@@H]1O [neomycin B]	[…]	[…]	without effect	[…]	[…]	[…]	[…]	failed to cause any change in the current	[…]	[…]	76	[…]	inhibited PTH secretion from human parathyroid cells	[…]	
polylysine															0.5
